Results: ChEMBL document CHEMBL1146442, “Kawaguchipeptin B, an antibacterial cyclic undecapeptide from the cyanobacterium Microcystis aeruginosa” (1997)
Converted amounts (≈) assume the structure as drawn. Residues, ends and D or L forms follow the SMILES beside them.

System: Staphylococcus aureus
Assay: Antimicrobial activity against Staphylococcus aureus
Format: functional

Row | MIC | Compound
1 | 1 µg/mL (≈ 0.703 µM) | CC(C)=CC[C@@]12C[C@H]3C(=O)N[C@@H](CO)C(=O)N[C@@H]([C@@H](C)O)C(=O)N4CCC[C@H]4C(=O)N4[C@@H](C[C@@]5(CC=C(C)C)c6ccccc6N[C@@H]45)C(=O)N[C@H](CC(C)C)C(=O)N[C@@H](CC(N)=O)C(=O)NCC(=O)N[C@@H](CC(=O)O)C(=O)N[C@@H](CC(N)=O)C(=O)N[C@@H](CC(N)=O)C(=O)N3[C@H]1Nc1ccccc12 [KAWAGUCHIPEPTIN A]
2 | 1 µg/mL (≈ 0.778 µM) | CC(C)C[C@@H]1NC(=O)[C@H](Cc2c[nH]c3ccccc23)NC(=O)[C@@H]2CCCN2C(=O)[C@H]([C@@H](C)O)NC(=O)[C@H](CO)NC(=O)[C@H](Cc2c[nH]c3ccccc23)NC(=O)[C@H](CC(N)=O)NC(=O)[C@H](CC(N)=O)NC(=O)[C@H](CC(=O)O)NC(=O)CNC(=O)[C@H](CC(N)=O)NC1=O [KAWAGUCHIPEPTIN B] (HELM PEPTIDE1{D.N.N.W.S.T.P.W.L.N.G}$PEPTIDE1,PEPTIDE1,1:R1-11:R2$$$V2.0)
